What was measured:
Type in all cases: functional, organism-based
Rattus norvegicus [1] = assay: Carcinogenic activity on ear duct after oral administration
Rattus norvegicus [2] = assay: Carcinogenic activity on liver after oral administration
Rattus norvegicus [3] = assay: Carcinogenic activity on other sites after oral administration
Rattus norvegicus [4] = assay: Carcinogenic activity on all sites after oral administration
Rattus norvegicus [5] = assay: Carcinogenic activity on breast after oral administration of the compound
Rattus norvegicus [6] = assay: Carcinogenic activity on mixed data after oral administration
Rattus norvegicus [7] = assay: Carcinogenic activity on breast after oral administration
Rattus norvegicus [8] = assay: Carcinogenic activity on all sites after subcutaneous administration
Rattus norvegicus [9] = assay: Carcinogenic activity on ear duct after subcutaneous administration
Rattus norvegicus [10] = assay: Carcinogenic activity on other sites after subcutaneous administration

Measured: Activity

CC(=O)N(O)c1ccc2c(c1)Cc1cc(F)ccc1-2
Carcinogenic activity: Rattus norvegicus [1] | Rattus norvegicus [2] | Rattus norvegicus [3] | Rattus norvegicus [4] | Rattus norvegicus [5] | Rattus norvegicus [6]

Nc1ccc(/C=C/c2ccccc2)cc1
Carcinogenic activity: Rattus norvegicus [1] | Rattus norvegicus [7] | Rattus norvegicus [4]

Nc1ccc(-c2ccccc2)cc1
Carcinogenic activity: Rattus norvegicus [7] | Rattus norvegicus [4]

O=C(Nc1ccc2c(c1)Cc1ccccc1-2)C(F)(F)F
Carcinogenic activity: Rattus norvegicus [1] | Rattus norvegicus [2] | Rattus norvegicus [4] | Rattus norvegicus [5] | Rattus norvegicus [6]

Nc1ccc(/C=C/c2ccc(N)cc2)cc1
Carcinogenic activity: Rattus norvegicus [8] | Rattus norvegicus [9]

CC(=O)N(C(C)=O)c1ccc2c(c1)Cc1ccccc1-2
Carcinogenic activity: Rattus norvegicus [1] | Rattus norvegicus [2] | Rattus norvegicus [3] | Rattus norvegicus [4] | Rattus norvegicus [5] | Rattus norvegicus [6]

Cc1cc(C)c(-c2ccc(N)cc2C)c(C)c1
Carcinogenic activity: Rattus norvegicus [8] | Rattus norvegicus [10]

N/C(=N\O)c1ccc([N+](=O)[O-])o1
Carcinogenic activity: Rattus norvegicus [7] | Rattus norvegicus [4] | Rattus norvegicus [6]

CC(=O)N(OC(=O)c1ccccc1)c1ccc2c(c1)Cc1ccccc1-2
Carcinogenic activity: Rattus norvegicus [8] | Rattus norvegicus [10]

[O-][n+]1ccc(NO)c2ccccc21
Carcinogenic activity: Rattus norvegicus [7] | Rattus norvegicus [3] | Rattus norvegicus [4]

CC(=O)ON(C(C)=O)c1ccc2c(c1)Cc1ccccc1-2
Carcinogenic activity: Rattus norvegicus [8] | Rattus norvegicus [10]

CC(=O)Nc1ccc2c(c1)Cc1c(F)cccc1-2
Carcinogenic activity: Rattus norvegicus [1] | Rattus norvegicus [2] | Rattus norvegicus [4] | Rattus norvegicus [5] | Rattus norvegicus [6]

CC(=O)Nc1cc2c(cc1F)-c1ccccc1C2
Carcinogenic activity: Rattus norvegicus [1] | Rattus norvegicus [2] | Rattus norvegicus [4] | Rattus norvegicus [5] | Rattus norvegicus [6]

CC(=O)Nc1ccc2c(c1)Cc1ccc(F)cc1-2
Carcinogenic activity: Rattus norvegicus [1] | Rattus norvegicus [2] | Rattus norvegicus [3] | Rattus norvegicus [4] | Rattus norvegicus [5] | Rattus norvegicus [6]

Nc1ccc(/C=C/c2ccc(N)c(Cl)c2)cc1Cl
Carcinogenic activity: Rattus norvegicus [8] | Rattus norvegicus [10]

CC(=O)ON(C(C)=O)c1ccc(-c2ccccc2)cc1
Carcinogenic activity: Rattus norvegicus [8] | Rattus norvegicus [10]

NNc1nc(-c2ccc([N+](=O)[O-])o2)cs1
Carcinogenic activity: Rattus norvegicus [7] | Rattus norvegicus [4]

NNc1nc(-c2ccc([N+](=O)[O-])cc2)cs1
Carcinogenic activity: Rattus norvegicus [7] | Rattus norvegicus [4]

CC(=O)Nc1ccc2c(ccc3ccccc32)c1
Carcinogenic activity: Rattus norvegicus [1] | Rattus norvegicus [7] | Rattus norvegicus [2] | Rattus norvegicus [3] | Rattus norvegicus [4] | Rattus norvegicus [6]

CC(=O)Nc1ccc2c(c1)Cc1cc(F)ccc1-2
Carcinogenic activity: Rattus norvegicus [1] | Rattus norvegicus [2] | Rattus norvegicus [4] | Rattus norvegicus [5] | Rattus norvegicus [6]

CNc1ccc2c(c1)Cc1ccccc1-2
Carcinogenic activity: Rattus norvegicus [1] | Rattus norvegicus [2] | Rattus norvegicus [3] | Rattus norvegicus [4] | Rattus norvegicus [5] | Rattus norvegicus [6]

CC(=O)ON(C(C)=O)c1cccc2ccc3ccccc3c12
Carcinogenic activity: Rattus norvegicus [8] | Rattus norvegicus [10]

COc1cc(N)ccc1-c1ccccc1
Carcinogenic activity: Rattus norvegicus [8] | Rattus norvegicus [10]

COc1cc(/C=C/c2ccccc2)c(OC)cc1N
Carcinogenic activity: Rattus norvegicus [8] | Rattus norvegicus [9]

Nc1cccc2c1ccc1ccccc12
Carcinogenic activity: Rattus norvegicus [7] | Rattus norvegicus [4]

CN(C)c1ccc(/C=C/c2ccccc2F)cc1
Carcinogenic activity: Rattus norvegicus [1] | Rattus norvegicus [2] | Rattus norvegicus [4] | Rattus norvegicus [5] | Rattus norvegicus [6]

Cc1cc(N)ccc1/C=C/c1ccccc1
Carcinogenic activity: Rattus norvegicus [8] | Rattus norvegicus [10]

Cc1cc(Cc2ccc(N)c(C)c2)ccc1N
Carcinogenic activity: Rattus norvegicus [2] | Rattus norvegicus [3] | Rattus norvegicus [4] | Rattus norvegicus [5] | Rattus norvegicus [6]

CC(=O)Nc1ccc2c(c1)Cc1cc(NC(C)=O)ccc1-2
Carcinogenic activity: Rattus norvegicus [1] | Rattus norvegicus [2] | Rattus norvegicus [3] | Rattus norvegicus [4] | Rattus norvegicus [5] | Rattus norvegicus [6]

Cc1cc(/C=C/c2ccccc2)ccc1N
Carcinogenic activity: Rattus norvegicus [8] | Rattus norvegicus [10]

Cc1ccc(C)c(-c2ccc(N)cc2C)c1
Carcinogenic activity: Rattus norvegicus [8] | Rattus norvegicus [10]

O=CNNc1nc(-c2ccc([N+](=O)[O-])o2)cs1
Carcinogenic activity: Rattus norvegicus [7] | Rattus norvegicus [3] | Rattus norvegicus [4]

COc1ccc2c(c1)Cc1cc(NC(C)=O)ccc1-2
Carcinogenic activity: Rattus norvegicus [1] | Rattus norvegicus [2] | Rattus norvegicus [4] | Rattus norvegicus [5] | Rattus norvegicus [6]

CN(C)c1ccc2c(c1)Cc1ccccc1-2
Carcinogenic activity: Rattus norvegicus [1] | Rattus norvegicus [2] | Rattus norvegicus [3] | Rattus norvegicus [4] | Rattus norvegicus [5] | Rattus norvegicus [6]

Cc1cc(-c2ccccc2C)ccc1N
Carcinogenic activity: Rattus norvegicus [1] | Rattus norvegicus [7] | Rattus norvegicus [3] | Rattus norvegicus [4] | Rattus norvegicus [6]

Cc1ccc(/N=N/c2cc(C)ccc2N)cc1
Carcinogenic activity: Rattus norvegicus [7]

Nc1ccc2c(ccc3ccccc32)c1
Carcinogenic activity: Rattus norvegicus [7] | Rattus norvegicus [4]

Source: ChEMBL document CHEMBL1121791, “Computer-assisted structure-activity studies of chemical carcinogens. Aromatic amines” (J Med Chem, 1981)
